Structures can show the parent of a compound that is named as a salt.

The subject of the first experiment is human basophils. The experiment can be described thus: Inhibition of histamine release from immunologically stimulated human basophils. Particulars: Homo sapiens, concentration causing 50% inhibition of histamine release, by linear regression; active if IC50 ≦ 48 µM. The experiment is classed as cell-based. On the procedure:
The blood is allowed to sediment at room temperature in two 50 ml polycarbonate centrifuge tubes until a sharp interface develops between the red cells and plasma (60-90 minutes). The plasma (top) layer from each tube is withdrawn by pipet and transferred to respective 50 ml polycarbonate tubes. The plasma is centrifuged for 8 minutes at 110X G at 4°C. The supernatant is carefully poured off as completely as possible and the cell button is resuspended in 2-3 ml of Tris-A buffer using a siliconized Pasteur pipet. The resuspension is accomplished by drawing the liquid gently in an out of the pipet, with the tip below the liquid until an even suspension of cells is obtained. Sufficient Tris-A buffer is then added to bring the volume in the tube to about 45 ml and the tube is centrifuged at 110X G for 8 minutes at 4°C. The supernatant is poured off and the cell button is resuspended and centrifuged as described above. The supernatant is poured off and the cell button is suspended in 2-3 ml of Tris-ACM buffer to make the final volume sufficient to allow addition to the reaction tubes. Reaction tubes containing anti-IgE or antigens, either alone or with test compound in a total volume of 0.2 ml are prepared and placed in a 37°C bath. The cells are warmed to 37°C and frequently swirled to ensure an even suspension, while 1.0 ml aliquots are added to each reaction tube. The tubes are then incubated for 60 minutes at 37°C, vortexing the tubes gently every 15 minutes to keep the cells evenly suspended. When the reaction is complete, the tubes are centrifuged at 4°C for 10 minutes at 1500 rpm to sediment the cells. […] Blanks and totals are included in each test. The blanks have cells and all reagents except antigen or anti-IgE. The totals contain 0.24 ml of 8% perchloric acid, one ml of cells and 0.2 ml of buffer. All samples are then centrifuged to remove the precipitate protein. […] The automated system consists of the following Technicon Autoanalyzer II components Sampler IV, Dual-Speed Proportioning Pump III, Fluoronephelometer with a narrow pass primary filter 7-60 and a secondary filter 3-74, Recorder, and Digital Printer. The manifold used is the one described by Siraganian vide supra, with the following modifications: the dialyzer is omitted; all pumping tubes pass through a single proportioning pump with large capacity and twice the volume of sample is taken for anaylsis. The automated chemistry consists of the following steps: Extraction from alkaline saline into butanol, back extraction into dilute hydrochloric acid by addition of heptane, reaction of histamine with o-phthaldialdehyde (OPT) at high pH and conversion of the OPT adduct to a stable fluorophore with phosphoric acid. The reaction product is then passed through the fluorometer. The full scale response is adjusted to 50 ng histamine base with a threshold sensitivity of approximately 0.5 ng. The instrument blank (wash) is substracted from the ng histamine of each sample. Then the ng histamine of each sample is divided by the mean of the three totals (cells lysed with perchloric acid) to obtain percent release. Control samples contain antigen but no test compound. Blank (or spontaneous release) samples contain neither antigen nor test compound. The mean of the blanks (three replicates) is subtracted from the percent release for controls and test compounds.
On to `Cc1cc(C)cc(Nc2nccc(-c3ccccn3)n2)c1` [N-(3,5-Dimethylphenyl)-4-(2-pyridinyl)-2-pyrimidinamine, sulfate], for which the IC50 worked out at 0.6 µM.
Same read-out and setting: to `Cc1cc(C)cc(Nc2nccc(-c3cccnc3)n2)c1` [N-(3,5-Dimethylphenyl)-4-(3-pyridinyl)-2-pyrimidinamine, sulfate] belongs 3 µM.

Still in this experiment, the particulars now being: Homo sapiens, concentration causing 50% inhibition of histamine release, by linear regression; active if IC50 ≦ 48 µM; read-out: IC50.
Consider `Cc1ccc(-c2ccnc(Nc3cccc(N(C)C)c3)n2)s1` [N,N-Dimethyl-N'-[4-(5-methyl-2-thienyl)-2-pyrimidinyl]-1,3-benzenediamine], for which the IC50 amounted to 5.7 µM.
For the molecule `Cc1cc(-c2ccccn2)nc(Nc2ccc(N(C)C)cc2)n1` [N,N-Dimethyl-N'-[4-methyl-6-(2-pyridinyl)-2-pyrimidinyl]-1,4-benzenediamine], the IC50 was determined as 31.8 µM.
Still for that read-out and setting: to `Cc1cc(-c2ccncc2)nc(Nc2ccc(N(C)C)cc2)n1` [N,N-Dimethyl-N'-[4-methyl-6-(4-pyridinyl)-2-pyrimidinyl]-1,4-benzenediamine] belongs 37.7 µM; to `c1ccc(-c2ccnc(Nc3cccc4ccccc34)n2)nc1` [N-1-Naphthalenyl-4-(2-pyridinyl)-2-pyrimidinamine], 3 µM.
The same measure, in the same setting: to `c1ccc2c(Nc3nccc(-c4ccncc4)n3)cccc2c1` [N-1-Naphthalenyl-4-(4-pyridinyl)-2-pyrimidinamine] belongs 31.3 µM; to `Cc1cccc(Nc2nccc(-c3ccncc3)n2)c1C` [N-(2,3-Dimethylphenyl)-4-(4-pyridinyl)-2-pyrimidinamine], 20.2 µM; to `Fc1ccc(Nc2nccc(-c3cccnc3)n2)c(F)c1` [N-(2,4-Difluorophenyl)-4-(3-pyridinyl)-2-pyrimidinamine], less than 48 µM.
Still for that read-out and setting: the figure for `Fc1ccc(Nc2nccc(-c3ccncc3)n2)c(F)c1` [N-(2,4-Difluorophenyl)-4-(4-pyri-dinyl)-2-pyrimidinamine] is less than 48 µM; for `Cc1ccc(Nc2nccc(-c3ccncc3)n2)c(C)c1` [N-(2,4-Dimethylphenyl)-4-(4-pyridinyl)-2-pyrimidinamine] it is 24 µM.
In the case of `Cc1ccc(C)c(Nc2nccc(-c3ccccn3)n2)c1` [N-(2,5-Dimethylphenyl)-4-(2-pyridinyl)-2-pyrimidinamine], the IC50 is less than 48 µM.
The same measure, in the same setting: the figure for `Cc1ccc(C)c(Nc2nccc(-c3ccncc3)n2)c1` [N-(2,5-Dimethylphenyl)-4-(4-pyridinyl)-2-pyrimidinamine] is 47.1 µM.
Still for that read-out and setting: the figure for `Fc1cccc(F)c1Nc1nccc(-c2cccnc2)n1` [N-(2,6-Difluorophenyl)-4-(3-pyridinyl)-2-pyrimidinamine] is 22 µM; for `Fc1cccc(F)c1Nc1nccc(-c2ccncc2)n1` [N-(2,6-Difluorophenyl)-4-(4-pyridinyl)-2-pyrimidinamine] it is 2.9 µM; for `COc1ccc(C)cc1Nc1nccc(-c2ccncc2)n1` [N-(2-Methoxy-5-methylphenyl)-4-(4-pyridinyl)-2-pyrimidinamine] it is 6.9 µM.
Take `COc1ccccc1Nc1nccc(-c2cccnc2)n1` [N-(2-Methoxyphenyl)-4-(3-pyridinyl)-2-pyrimidinamine]: the IC50 was 9.8 µM.
The same measure, in the same setting: to `Cc1ccccc1Nc1nccc(-c2ccncc2)n1` [N-(2-Methylphenyl)-4-(4-pyridinyl)-2-pyrimidinamine] belongs 3.9 µM; to `Cc1ccc(Nc2nccc(-c3ccccn3)n2)cc1C` [N-(3,4-Dimethylphenyl)-4-(2-pyridinyl)-2-pyrimidinamine], 5.9 µM; to `Cc1cc(C)cc(Nc2nccc(-c3ccco3)n2)c1` [N-(3,5-Dimethylphenyl)-4-(2-furanyl)-2-pyrimidinamine], 0.7 µM.
On the same count and under the same terms, to `Cc1cc(C)cc(Nc2ncc(C)c(-c3ccco3)n2)c1` [N-(3,5-Dimethylphenyl)-4-(2-furanyl)-5-methyl-2-pyrimidinamine] belongs less than 24 µM.
Same read-out and setting: the figure for `Cc1cc(C)cc(Nc2nccc(-c3cccs3)n2)c1` [N-(3,5-Dimethylphenyl)-4-(2-thienyl)-2-pyrimidinamine] is 4.3 µM; for `Cc1cc(C)cc(Nc2nccc(-c3ccncc3)n2)c1` [N-(3,5-Dimethylphenyl)-4-(4-pyridinyl)-2-pyrimidinamine] it is 4.4 µM.
Regarding `Cc1ccc(Nc2nccc(-c3cccnc3)n2)cc1Cl` [N-(3-Chloro-4-methylphenyl)-4-(3-pyridinyl)-2-pyrimidinamine], the IC50 was found to be 9.3 µM.
Still for that read-out and setting: the figure for `Clc1cccc(Nc2nccc(-c3ccccn3)n2)c1` [N-(3-Chlorophenyl)-4-(2-pyridinyl)-2-pyrimidinamine] is 1.3 µM.
On the same count and under the same terms, to `Clc1cccc(Nc2nccc(-c3cccnc3)n2)c1` [N-(3-Chlorophenyl)-4-(3-pyridinyl)-2-pyrimidinamine] belongs 1.5 µM; to `Clc1cccc(Nc2nccc(-c3ccncc3)n2)c1` [N-(3-Chlorophenyl)-4-(4-pyridinyl)-2-pyrimidinamine], 3.1 µM; to `CCc1cccc(Nc2nccc(-c3ccco3)n2)c1` [N-(3-Ethylphenyl)-4-(2-furanyl)-2-pyrimidinamine], 9.7 µM.
Consider `CCc1cccc(Nc2nccc(-c3ccccn3)n2)c1` [N-(3-Ethylphenyl)-4-(2-pyridinyl)-2-pyrimidinamine], for which the IC50 was 1.4 µM.
For the molecule `CCc1cccc(Nc2nccc(-c3cccs3)n2)c1` [N-(3-Ethylphenyl)-4-(2-thienyl)-2-pyrimidinamine], the IC50 was 48 µM.
`CCc1cccc(Nc2nccc(-c3cccnc3)n2)c1` [N-(3-Ethylphenyl)-4-(3-pyridinyl)-2-pyrimidinamine]: the IC50 was 1.7 µM.
For the molecule `CCc1cccc(Nc2nccc(-c3ccsc3)n2)c1` [N-(3-Ethylphenyl)-4-(3-thienyl)-2-pyrimidinamine], the IC50 came to 1.1 µM.
On the same count and under the same terms, the figure for `CCc1cccc(Nc2nccc(-c3ccncc3)n2)c1` [N-(3-Ethylphenyl)-4-(4-pyridinyl)-2-pyrimidinamine] is 10.6 µM; for `Fc1cccc(Nc2nccc(-c3ccccn3)n2)c1` [N-(3-Fluorophenyl)-4-(2-pyridinyl)-2-pyrimidinamine] it is 0.9 µM.
Same read-out and setting: to `Fc1cccc(Nc2nccc(-c3cccnc3)n2)c1` [N-(3-Fluorophenyl)-4-(3-pyridinyl)-2-pyrimidinamine] belongs 3.3 µM; to `Fc1cccc(Nc2nccc(-c3ccncc3)n2)c1` [N-(3-Fluorophenyl)-4-(4-pyridinyl)-2-pyrimidinamine], 0.7 µM.
Take `COc1cccc(Nc2nccc(-c3cc(C)oc3C)n2)c1` [N-(3-Methoxyphenyl)-4-(2,5-dimethyl-3-furanyl)-2-pyrimidinamine]: the IC50 turned out to be 5.8 µM.
On the same count and under the same terms, to `COc1cccc(Nc2nccc(-c3ccccn3)n2)c1` [N-(3-Methoxyphenyl)-4-(2-pyridinyl)-2-pyrimidinamine] belongs 0.2 µM; to `COc1cccc(Nc2nccc(-c3cccs3)n2)c1` [N-(3-Methoxyphenyl)-4-(2-thienyl)-2-pyrimidinamine], 0.9 µM; to `COc1cccc(Nc2nccc(-c3cccnc3)n2)c1` [N-(3-Methoxyphenyl)-4-(3-pyridinyl)-2-pyrimidinamine], 0.3 µM.
On the same count and under the same terms, to `COc1cccc(Nc2nccc(-c3ccsc3)n2)c1` [N-(3-Methoxyphenyl)-4-(3-thienyl)-2-pyrimidinamine] belongs 1.7 µM.

The same experiment, now with this note: concentration causing 50% inhibition of histamine release, by linear regression; active if IC50 ≦ 48 µM; phosphate; read-out: IC50.
Turning to `Cc1cc(C)cc(Nc2nccc(-c3ccccn3)n2)c1` [N-(3,5-Dimethylphenyl)-4-(2-pyridinyl)-2-pyrimidinamine, phosphate], the IC50 turned out to be 0.3 µM.
Same read-out and setting: to `Cc1cc(C)cc(Nc2nccc(-c3cccnc3)n2)c1` [N-(3,5-Dimethylphenyl)-4-(3-pyridinyl)-2-pyrimidinamine, phosphate] belongs 3 µM.

The same experiment, now with this note: concentration causing 50% inhibition of histamine release, by linear regression; active if IC50 ≦ 48 µM; read-out: IC50.
With `Cc1cc(C)cc(Nc2nccc(-c3ccccn3)n2)c1` [N-(3,5-Dimethylphenyl)-4-(2-pyridinyl)-2-pyrimidinamine], the IC50 was determined as 1 µM.
Still for that read-out and setting: the figure for `Cc1cc(C)cc(Nc2nccc(-c3cccnc3)n2)c1` [N-(3,5-Dimethylphenyl)-4-(3-pyridinyl)-2-pyrimidinamine] is 0.8 µM.

The term IC50 denotes the midpoint of a concentration-inhibition curve.

These data come from patent EP0233461B2, “4,5,6-Substituted-2-pyrimidinamines” (AMERICAN CYANAMID COMPANY, priority 1986, dated 1987).
